# Laboratory results published in PMC4979527, “Post-translational allosteric activation of the P2X7 receptor through glycosaminoglycan chains of CD44 proteoglycans” (Cell Death Discovery, 2015).
# Entries after “also recorded” stand apart in the source; their conditions may differ.
# Legend:
# P2X7 receptor [1] = biological target: T1, P2X7 receptor (Cricetulus griseus, UniProt A0A9J7FWH6); experiment: Cytoplasmic Ca2+ influx (Fluo-4, Flex Station 3) in wild-type CHO-K1 cells; format: cell-based, Chinese hamster; conditions: for Increase of Ca2+cyt response by heparin pre-treatment: heparin pre-incubation 5 min (10-100 μM)
# T1 sequence (A0A9J7FWH6 1-593): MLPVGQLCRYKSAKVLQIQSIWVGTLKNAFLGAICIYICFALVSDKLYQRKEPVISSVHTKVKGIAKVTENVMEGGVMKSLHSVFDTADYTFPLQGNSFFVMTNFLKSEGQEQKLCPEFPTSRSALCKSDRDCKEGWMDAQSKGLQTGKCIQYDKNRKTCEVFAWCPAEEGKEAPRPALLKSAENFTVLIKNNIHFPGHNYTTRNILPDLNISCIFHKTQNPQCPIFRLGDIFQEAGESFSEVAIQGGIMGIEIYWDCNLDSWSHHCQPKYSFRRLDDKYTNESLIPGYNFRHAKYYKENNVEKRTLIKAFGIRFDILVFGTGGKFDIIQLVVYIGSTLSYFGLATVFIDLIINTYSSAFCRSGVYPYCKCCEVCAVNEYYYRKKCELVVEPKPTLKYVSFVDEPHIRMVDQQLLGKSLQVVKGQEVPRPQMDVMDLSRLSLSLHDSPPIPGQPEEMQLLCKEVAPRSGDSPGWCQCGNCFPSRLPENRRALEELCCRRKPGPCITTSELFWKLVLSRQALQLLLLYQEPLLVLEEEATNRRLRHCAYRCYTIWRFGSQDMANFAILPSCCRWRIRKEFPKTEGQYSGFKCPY
# Procedure: (§1) Cytoplasmic Ca^2+ influx, [Ca^2+]cyt, measurements were monitored through changes of the Fluo-4 fluorescence intensity in real time using the Flex Station 3 microplate reader system. CHO-K1 (●-●) and CHO-745 ([…]-[…]) cells were seeded onto black 96-well plates (10^4 cells/well). Then, the cells were incubated with Fluo-4 for 1 h at 37 °C. […] The data represent the mean±S.E.M. (N=6).
# (§2) Subsequently, the cells were incubated with Fluo-4 Direct Calcium Assay reagent for 1 h at 37 °C, according to the manufacturer’s instructions. The samples were stimulated with different agonists, and the fluorescence was quantified using a Flex Station 3 microplate reader (Molecular Devices, Sunnyvale, CA, USA). The Fluo-4 was excited at 490 nm and the emission was detected at 525 nm.[57]
# P2X7 receptor [2] = biological target: T1, P2X7 receptor; experiment: Cytoplasmic Ca2+ influx (Fluo-4, Flex Station 3) in mutant CHO-745 cells defective in GAGs; format: cell-based, Chinese hamster; conditions: for Increase of Ca2+ response by heparin pre-treatment: heparin pre-incubation 5 min (10-100 μM)
# Procedure: as §1, §2
# P2 receptors = experiment: Cytoplasmic Ca2+ influx (Fluo-4) in CHO cells, both lines; format: cell-based, Chinese hamster; conditions: for Intracellular Ca2+ increase on agonist addition: CHO cells, concentration-response curves; for Modulation of BzATP-stimulated Ca2+ influx by divalent cation: high concentration of cation (10 mM MgCl2; Cu2+ vs 100 μM BzATP), CHO-K1 and CHO-745
# Procedure: as §1, §2
# CHO-K1 and CHO-745 cells = experiment: Cell viability (MTT) and cell death (annexin V-APC/7-AAD) assay; format: cell-based; conditions: 24 h; for Morphology of CHO cultures (phase contrast microscopy): 4 mM ATP or 1 mM BzATP; for Cell death (MTT assay): high concentration (ATP >1 mM, BzATP >500 μM), both lines
# Procedure: The viability of CHO cell lines was determined using the MTT assay.[58] […] The medium was removed, 100 μl of MTT (1 mg/ml) was added to each well and the cells were incubated again at 37 °C for 4 h. The supernatant was removed and 200 μl/well of DMSO was added to solubilize the formazan crystals formed. The absorbance was read at 570 nm using a microplate reader, and the cell viability was determined using the standard reduction of the MTT. The results were expressed relative to control cell viability (100%).
# Cell death was investigated using annexin V-APC/7-AAD double staining and was analyzed through flow cytometry.[57],[59] […] The suspensions were transferred to tubes, centrifuged and resuspended with annexin V-APC and 7-AAD according to the manufacturer’s instructions. The cells were incubated at room temperature for 30 min, and the viable, apoptotic or necrotic cell populations were evaluated through flow cytometry. The data were collected using a FACSCalibur flow cytometer (Becton–Dickinson) and CellQuest software (Becton–Dickinson), followed by analysis using FlowJo software (Tree Star). […] The results were calculated as the percentage of cell death compared with the control.
# P2X7 receptor [3] = biological target: T1, P2X7 receptor; conditions: 4 mM ATP
# Procedure: P2X7 pore formation was functionality examined in CHO cells by analyzing PI uptake using a FACSCalibur flow cytometer (Becton–Dickinson). The cells were seeded onto six-well plates (10^6 cells/well) and maintained for 48 h at 37 °C under an atmosphere of 5% (v/v) CO2. Subsequently, the cells were harvested using 10 mM EDTA/PBS and adjusted to a concentration of 10^6 cells per tube. The samples were incubated with 5 μM of PI at a final volume of 200 μl/well in fresh serum-free medium F12 for 15 min, followed by the addition of 4 mM ATP and incubation at 37 °C for 30, 60 and 120 min, respectively. The intensity of dye uptake was immediately determined. A total of 10 000 events were collected for each sample.[60],[61]
# [4] = CHO-K1, in presence of 10 mM Mg2+ (MgCl2)
# [5] = CHO-745, in presence of 10 mM Mg2+ (MgCl2)
compound,measurement,setting,value
Nc1ncnc2c1ncn2[C@@H]1O[C@H](COP(=O)(O)OP(=O)(O)OP(=O)(O)O)[C@@H](OC(=O)c2ccc(C(=O)c3ccccc3)cc2)[C@H]1O (relative stereo) [BzATP+Mg^2+],Emax,P2X7 receptor [1]; [4],153±6 URF
same,Hill coefficient,P2X7 receptor [1]; [4],1.5±0.1
same,Emax,P2X7 receptor [2]; [5],119±10 URF
same,Hill coefficient,P2X7 receptor [2]; [5],2.8±0.3
"Nc1ncnc2c1ncn2[C@@H]1O[C@H](COP(=O)(O)OP(=O)(O)OP(=O)(O)O)[C@@H](OC(=O)c2ccc(C(=O)c3ccccc3)cc2)[C@H]1O (relative stereo) [BzATP, 2′(3′)-O-(4-benzoylbenzoyl)adenosine 5′-triphosphate]",Emax,"P2X7 receptor [1]; CHO-K1, Ca2+ influx",275±8 URF
same,Hill coefficient,"P2X7 receptor [1]; CHO-K1, Ca2+ influx",1.0±0.1
same,Emax,P2X7 receptor [1]; [4],153±6 URF
same,Emax,"P2X7 receptor [2]; CHO-745, Ca2+ influx",136±6 URF
same,Hill coefficient,"P2X7 receptor [2]; CHO-745, Ca2+ influx",1.8±0.2
same,Emax,P2X7 receptor [2]; [5],119±10 URF
same,Hill coefficient,P2X7 receptor [2]; [5],2.8±0.3
same,Intracellular Ca2+ increase on agonist addition,P2 receptors,promoted Ca^2+ increase
same,Morphology of CHO cultures (phase contrast microscopy),CHO-K1 and CHO-745 cells,increased morphological changes and cell detachment
same,Cell death (MTT assay),CHO-K1 and CHO-745 cells,promoted cell death
"CSc1nc(N)c2ncn([C@@H]3O[C@H](COP(=O)(O)OP(=O)(O)OP(=O)(O)O)[C@@H](O)[C@H]3O)c2n1 [2-MeSATP, 2-(methylthio)adenosine 5′-triphosphate]",Intracellular Ca2+ increase on agonist addition,P2 receptors,did not increase intracellular Ca^2+
"Nc1ncnc2c1ncn2[C@@H]1O[C@H](COP(=O)(O)OP(=O)(O)O)[C@@H](O)[C@H]1O [ADP, adenosine 5′-diphosphate]",Intracellular Ca2+ increase on agonist addition,P2 receptors,promoted Ca^2+ increase
"Nc1ncnc2c1ncn2[C@@H]1O[C@H](COP(=O)(O)OP(=O)(O)OP(=O)(O)O)[C@@H](O)[C@H]1O [ATP, adenosine 5′-triphosphate]",Emax,"P2X7 receptor [1]; CHO-K1, Ca2+ influx",258±10 URF
same,Hill coefficient,"P2X7 receptor [1]; CHO-K1, Ca2+ influx",0.9±0.1
same,Emax,"P2X7 receptor [2]; CHO-745, Ca2+ influx",97±7 URF
same,Hill coefficient,"P2X7 receptor [2]; CHO-745, Ca2+ influx",2.0±0.3
same,Intracellular Ca2+ increase on agonist addition,P2 receptors,promoted Ca^2+ increase
same,"Sensitivity to PI accumulation, CHO-745 less sensitive than CHO-K1",P2X7 receptor [3],2.5 fold
same,Propidium iodide (PI) uptake,"P2X7 receptor [3]; CHO cells, after 30 min at 37 °C",induced the time-dependent uptake of propidium iodide
same,Morphology of CHO cultures (phase contrast microscopy),CHO-K1 and CHO-745 cells,increased morphological changes and cell detachment
same,Cell death (MTT assay),CHO-K1 and CHO-745 cells,promoted cell death
[Cu+2] [Cu^2+],Modulation of BzATP-stimulated Ca2+ influx by divalent cation,P2 receptors,negatively modulated
[Mg+2] [Mg^2+],Modulation of BzATP-stimulated Ca2+ influx by divalent cation,P2 receptors,negatively modulated
"O=c1ccn([C@@H]2O[C@H](COP(=O)(O)OP(=O)(O)O)[C@@H](O)[C@H]2O)c(=O)[nH]1 [UDP, uridine 5′-diphosphate]",Intracellular Ca2+ increase on agonist addition,P2 receptors,promoted Ca^2+ increase
"O=c1ccn([C@@H]2O[C@H](COP(=O)(O)OP(=O)(O)OP(=O)(O)O)[C@@H](O)[C@H]2O)c(=O)[nH]1 [UTP, uridine 5′-triphosphate]",Intracellular Ca2+ increase on agonist addition,P2 receptors,promoted Ca^2+ increase
"[Na+].[O-][Cl+2]([O-])[O-] [chlorate, sodium chlorate]",Inhibition of total P2X7 agonist (ATP or BzATP) response,"P2X7 receptor [1]; CHO-K1, pre-treatment 20 or 50 mM sodium chlorate, 24 h",~ 35%
same,Effect on P2X7 agonist response,"P2X7 receptor [2]; CHO-745, pre-treatment 20 or 50 mM sodium chlorate",did not block the P2X7 agonist response
"Nc1ncnc2c1ncn2[C@@H](C=O)O[C@@H](C=O)COP(=O)(O)OP(=O)(O)OP(=O)(O)O [oxATP, adenosine 5′-triphosphate periodate oxidized]",Effect of antagonist on BzATP-evoked Ca2+ influx,"P2X7 receptor [1]; CHO-K1, 300 μM oxATP, 100 μM BzATP",abolished the effect of BzATP
same,Effect of antagonist on BzATP-evoked Ca2+ influx,"P2X7 receptor [2]; CHO-745, 300 μM oxATP, 100 μM BzATP",abolished the effect of BzATP
"O=[N+]([O-])c1ccccc1O[C@@H]1OC[C@@H](O)[C@H](O)[C@H]1O [xylosides, o-nitrophenyl-β-D-xylopyranoside]",Inhibition of response induced through BzATP-gated P2X7,"P2X7 receptor [1]; CHO-K1, 2 mM xyloside pre-treatment (120 h), 3 μM BzATP",82%
same,Inhibition of response induced through ATP-gated P2X7,"P2X7 receptor [1]; CHO-K1, 2 mM xyloside pre-treatment (120 h), 10 μM ATP",55%
same,Effect on P2X7 agonist response,"P2X7 receptor [2]; CHO-745, 2 mM xyloside pre-treatment",did not block the P2X7 agonist response
"Nc1ncnc2c1ncn2C1OC(COP(=O)(O)CP(=O)(O)OP(=O)(O)O)C(O)C1O (stereo not drawn) [αβ-MeATP, α,β-methyleneadenosine 5′-triphosphate]",Intracellular Ca2+ increase on agonist addition,P2 receptors,did not increase intracellular Ca^2+
"Nc1ncnc2c1ncn2C1OC(COP(=O)(O)OP(=O)(O)CP(=O)(O)O)C(O)C1O (stereo not drawn) [βγ-MeATP, β,γ-methyleneadenosine 5′-triphosphate]",Intracellular Ca2+ increase on agonist addition,P2 receptors,did not increase intracellular Ca^2+
heparin,Increase of Ca2+cyt response by heparin pre-treatment,"P2X7 receptor [1]; CHO-K1, 10 μM ATP",120%
same,Potentiation of Ca2+ influx,"P2X7 receptor [1]; CHO-K1, 100 μM heparin, 3 μM BzATP",2.2 fold
same,Increase of Ca2+cyt response by heparin pre-treatment,"P2X7 receptor [1]; CHO-K1, 1 mM ATP",78%
same,Increase of Ca2+ response by heparin pre-treatment,"P2X7 receptor [2]; CHO-745, 10 μM ATP",40%
same,Increase of Ca2+ response by heparin pre-treatment,"P2X7 receptor [2]; CHO-745, 1 mM ATP",50%
same,Effect of heparin on Ca2+ influx at saturating agonist,P2 receptors; BzATP >100 μM or ATP >4 mM,induced no further increase in Ca^2+ influx
same,P2X7 stimulation by heparin alone,"P2 receptors; absence of ATP or BzATP, highest heparin concentration",did not elicit P2X7 stimulation; also recorded: did not elicit discernible P2X7 activation
